# Paper PMC11945486, “TAS1R2/TAS1R3 Single-Nucleotide Polymorphisms Affect Sweet Taste Receptor Activation by Sweeteners: The SWEET Project” (Nutrients, 2025)
# Read-outs that look alike come from different tables or passages of the source. No end group written: not given here.
# T1: human TAS1R2-WT/TAS1R3-L823F (Homo sapiens, UniProt Q7RTX0+Q8TE23, L823F)
# T1 construct: expressed in transfected cells; host or cells: HEK293T stably expressing Gα16gust44
# T1 sequence (Q8TE23 20-839): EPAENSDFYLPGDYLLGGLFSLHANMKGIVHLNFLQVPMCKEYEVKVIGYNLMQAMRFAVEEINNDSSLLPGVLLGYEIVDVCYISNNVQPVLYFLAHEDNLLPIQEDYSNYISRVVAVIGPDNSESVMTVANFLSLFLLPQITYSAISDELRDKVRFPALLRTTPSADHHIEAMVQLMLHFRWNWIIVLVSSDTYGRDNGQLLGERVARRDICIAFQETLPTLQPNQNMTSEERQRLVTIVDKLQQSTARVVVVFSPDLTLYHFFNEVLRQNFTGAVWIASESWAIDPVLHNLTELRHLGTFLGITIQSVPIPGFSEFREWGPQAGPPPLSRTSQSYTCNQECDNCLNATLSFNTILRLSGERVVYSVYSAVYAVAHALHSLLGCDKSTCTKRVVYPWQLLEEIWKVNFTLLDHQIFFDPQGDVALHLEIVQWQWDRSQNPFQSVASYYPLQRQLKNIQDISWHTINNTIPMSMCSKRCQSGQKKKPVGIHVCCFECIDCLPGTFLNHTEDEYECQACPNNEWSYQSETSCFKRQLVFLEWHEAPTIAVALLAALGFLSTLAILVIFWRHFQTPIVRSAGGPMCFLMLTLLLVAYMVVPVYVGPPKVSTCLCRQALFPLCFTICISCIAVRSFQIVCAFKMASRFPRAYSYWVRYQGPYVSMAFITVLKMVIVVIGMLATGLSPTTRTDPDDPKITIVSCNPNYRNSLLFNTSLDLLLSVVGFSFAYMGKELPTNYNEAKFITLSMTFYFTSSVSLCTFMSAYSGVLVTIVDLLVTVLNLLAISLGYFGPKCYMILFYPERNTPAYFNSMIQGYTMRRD
# T1 sequence (Q7RTX0 21-852 L823F): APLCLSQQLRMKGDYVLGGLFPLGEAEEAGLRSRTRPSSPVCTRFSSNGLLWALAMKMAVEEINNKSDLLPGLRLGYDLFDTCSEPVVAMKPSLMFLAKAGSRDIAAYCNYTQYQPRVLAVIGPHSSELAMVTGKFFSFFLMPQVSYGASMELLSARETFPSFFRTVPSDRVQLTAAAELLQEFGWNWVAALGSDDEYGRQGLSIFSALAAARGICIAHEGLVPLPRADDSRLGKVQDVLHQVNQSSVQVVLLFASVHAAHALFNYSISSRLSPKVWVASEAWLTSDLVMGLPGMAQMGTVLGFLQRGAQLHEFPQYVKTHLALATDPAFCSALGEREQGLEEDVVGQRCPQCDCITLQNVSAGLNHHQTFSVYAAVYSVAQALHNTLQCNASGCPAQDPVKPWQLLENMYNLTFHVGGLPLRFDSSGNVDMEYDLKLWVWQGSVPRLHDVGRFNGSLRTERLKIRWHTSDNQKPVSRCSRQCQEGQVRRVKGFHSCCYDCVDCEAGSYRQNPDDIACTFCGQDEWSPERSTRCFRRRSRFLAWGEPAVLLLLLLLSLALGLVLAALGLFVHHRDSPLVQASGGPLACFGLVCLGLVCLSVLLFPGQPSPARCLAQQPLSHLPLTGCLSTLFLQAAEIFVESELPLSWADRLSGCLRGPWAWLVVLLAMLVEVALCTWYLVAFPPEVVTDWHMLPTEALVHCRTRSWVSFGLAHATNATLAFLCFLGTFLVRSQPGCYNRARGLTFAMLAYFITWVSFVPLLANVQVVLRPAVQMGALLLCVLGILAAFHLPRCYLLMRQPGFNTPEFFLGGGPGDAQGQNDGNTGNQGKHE
# Biological target: T1, human TAS1R2-WT/TAS1R3-L823F
# Test: Calcium mobilisation assay, TAS1R2-WT with TAS1R3 variant L823F
# Format: cell-based
# Conditions: for Max ΔF/F0: maximal signal amplitude
# From the text: The coding sequences for TAS1R2 and TAS1R3 were commercially synthesised, and the human codon was optimised for expression in human cells. The coding sequences of human TAS1R2 and TAS1R3 were subcloned and inserted into the mammalian expression vectors pcDNA6/myc-HisA and pcDNA4/myc-HisA (Invitrogen; Thermo Fisher Scientific; Illkirch, France) between the EcoRI and NotI restriction sites, generating the plasmids pcDNA6-TAS1R2 and pcDNA4-TAS1R3, respectively. To increase protein expression in mammalian cells, an upstream start codon was used, which was a sequence called MAX, corresponding to the QBI SP163 element also described in pcDNA4-HisMax (Invitrogen; Thermo Fisher Scientific; Illkirch, France). To measure the expression level of the receptor by immunohistochemistry, we used the FLAG sequence ([…]) in the C-terminal position, which encodes the FLAG tag epitope. SNP variants of TAS1R2 and TAS1R3 were constructed based on […], respectively, using site-directed mutagenesis (Genewiz; Leipzig, Germany).
# The HEK293T cells were kindly provided by Jay P. Slack (Givaudan Flavors Corporation; Cincinnati, OH, USA). HEK293T cells stably transfected with Gα16gust44 [43, 67] were seeded in poly-D-lysine-coated clear-bottom black 96-well plates (0.35 × 10^5 cells/well) in high-glucose DMEM supplemented with 2 mM GlutaMAX, 10% dialysed foetal bovine serum with penicillin/streptomycin and G418 (400 μg/mL) at 37 °C and 6.3% CO2 in a humidified atmosphere as previously reported. […] As a negative control, HEK293T cells were mock-transfected with the empty expression vector. After a further 24 h of incubation, the HEK293T cells were washed with C1 buffer (130 mM NaCl, 5 mM KCl, 10 mM HEPES pH 7.4 and 2 mM CaCl2). The 96-well plates containing the cells were then stimulated with sweet-tasting compounds. […] Different concentration ranges were tested depending on the sweet compound injected. The Ca^2+ changes were expressed as fractional changes in fluorescent light intensity: ΔF/F = (F − F0)/F0, where F was the fluorescent light intensity at each point, and F0 was the value of emitted fluorescent light prior to stimulus application. To calculate dose–response relationships, the changes in fluorescence upon stimulus application were averaged, mock-subtracted and baseline-corrected. The dose–response data obtained were adjusted using a 4-parameter logistic equation. The half-maximal effective concentrations (EC50 values) and maximal signal amplitudes were calculated using SigmaPlot software (version 15.0) (Systat Software; San Jose, CA, USA).
# For in vitro calcium mobilisation assay performed on hTAS1R2-SNPs, hTAS1R3-SNPs and mTAS1R3-I60T, 6 to 7 concentrations were tested for each sweet compound, plus buffer alone. All concentration–receptor combinations were measured in duplicate, and each experiment was repeated at least 4 times (8 wells/concentration). Results were expressed for each concentration as ΔF/F mean ± SEM and represented as dose–response curves.
Molecule,R1 = Variant EC50/WT EC50,Max ΔF/F0,EC50 (read-out: EC50),EC50 (brazzein)
"CC1=CC(=O)NS(=O)(=O)O1 [Acesulfame K, acesulfame K]",0.6,0.33 ± 0.01,376 ± 34 µM,–
"O=S(=O)(O)NC1CCCCC1 [Cyclamate, cyclamate]",–,–,1370 ± 34 µM,–
"C[C@H](CC[C@@H](O[C@@H]1O[C@H](CO[C@@H]2O[C@H](CO)[C@@H](O)[C@H](O)[C@H]2O)[C@@H](O)[C@H](O)[C@H]1O[C@@H]1O[C@H](CO)[C@@H](O)[C@H](O)[C@H]1O)C(C)(C)O)[C@H]1CC[C@@]2(C)[C@@H]3CC=C4[C@@H](CC[C@H](O[C@@H]5O[C@H](CO[C@@H]6O[C@H](CO)[C@@H](O)[C@H](O)[C@H]6O)[C@@H](O)[C@H](O)[C@H]5O)C4(C)C)[C@]3(C)[C@H](O)C[C@]12C [Mogroside V, mogroside V]",0.7,1.18 ± 0.04,22 ± 1.8 µM,–
"COc1ccc(CCC(=O)c2c(O)cc(O[C@@H]3O[C@H](CO)[C@@H](O)[C@H](O)[C@H]3O[C@@H]3O[C@@H](C)[C@H](O)[C@@H](O)[C@H]3O)cc2O)cc1O [NHDC, neohesperidin dihydrochalcone]",0.9,1.00 ± 0.01,43.1 ± 14.7 µM,–
COC(=O)[C@H](Cc1ccccc1)NC(=O)[C@H](CC(=O)O)NCCC(C)(C)C [Neotame],0.9,0.76 ± 0.01,1.1 ± 0.06 µM,–

# Further lines, results first:
R1 = Variant EC50/WT EC50,Max ΔF/F0,EC50 (read-out: EC50),EC50 (brazzein),Molecule
0.7,1.39 ± 0.15,10 ± 3.1 µM,–,"C=C(C)[C@@H]1CC=C(/C=N/O)CC1 [Perillartine, perillartine]"
0.8,1.35 ± 0.09,33.2 ± 5.4 µM,–,"C=C1C[C@@]23CC[C@H]4[C@@](C)(CCC[C@@]4(C)C(=O)O[C@@H]4O[C@H](CO)[C@@H](O)[C@H](O[C@@H]5O[C@H](CO)[C@@H](O)[C@H](O)[C@H]5O)[C@H]4O[C@@H]4O[C@H](CO)[C@@H](O)[C@H](O)[C@H]4O)[C@@H]2CC[C@]1(O[C@@H]1O[C@H](CO)[C@@H](O)[C@H](O[C@@H]2O[C@H](CO)[C@@H](O)[C@H](O)[C@H]2O)[C@H]1O[C@@H]1O[C@H](CO)[C@@H](O)[C@H](O)[C@H]1O)C3 [Rebaudioside M, rebaudioside M]"
1.2,0.84 ± 0.02,134 ± 8 µM,–,OC[C@H]1O[C@H](O[C@]2(CCl)O[C@H](CCl)[C@@H](O)[C@@H]2O)[C@H](O)[C@@H](O)[C@H]1Cl [Sucralose]
0.7,0.98 ± 0.05,–,78.9 ± 14.2 µg/mL,"brazzein (QDKCKKVYENYPVSKCQLANQCNYDCKLDKHARSGECFYDEKRNLQCICDYCEY; ends and bridges not checked; cysteine pairing not given here; UniProt P56552 1-54, looked up) [sweet-tasting protein obtained by recombinant production using the yeast Pichia pastoris]"
0.7,0.71 ± 0.04,–,–,thaumatin
–,–,7.4 ± 1.1 µM,–,"thaumatin (protein, Eight disulfides, sweet-tasting plant protein, E957) ATFEIVNRCSYTVWAAASKGDAALDAGGRQLNSGESWTINVEPGTKGGKIWARTDCYFDDSGSGICKTGDCGGLLRCKRFGRPPTTLAEFSLNQYGKDYIDISNIKGFNVPMDFSPTTRGCRGVRCAADIVGQCPAKLKAPGGGCNDACTVFQTSEYCCTTGKCGPTEYSRFFKRLCPDAFSYVLDKPTTVTCPGSSNYRVTFCPTA"
